# Data published in patent US7923434B2, “Phosphole derivatives complexed with metals, and pharmaceutical uses thereof” (Centre National de la Recherche Scientifique, priority 2004, dated 2011).
# Substitutions are numbered along the chain they refer to.
# What was measured:
# [1] = system: NCH89 human glioblastoma cell line; test: BrdU in vitro proliferation test, NCH89; format: cell-based; conditions: BrdU incorporation
# Method: (§1) Briefly, the tumour cells are cultured and duplicated in 96-well plates in RPMI 1640 medium containing 10% foetal calf serum and antibiotics (cell density: 7×10^3 cells). […] After 48 hours, the reagent 5-bromo-2′-deoxyuridine (BrdU) was added at the final concentration of 10 μM for an incubation period of 19 hours. […] Compound (7) (Au-triphenylphosphine chloride complex, (PPh3)AuCl) and nitrosourea 1,3-bis(2-chloroethyl)-1-nitrosourea (BCNU, carmustine) are positive controls already reported in the literature.
# WT hTrxR [2] = biological target: T1, WT hTrxR (Homo sapiens, UniProt Q16881); test: Test for reduction of Trx (hTrxC72S) by TrxR, wild type; format: biochemical; conditions: 20 μM hTrxC72S; 10 min pre-incubation with 100 μM NADPH; enzyme 24 nM
# T1 sequence (Q16881 151-649 limits assumed): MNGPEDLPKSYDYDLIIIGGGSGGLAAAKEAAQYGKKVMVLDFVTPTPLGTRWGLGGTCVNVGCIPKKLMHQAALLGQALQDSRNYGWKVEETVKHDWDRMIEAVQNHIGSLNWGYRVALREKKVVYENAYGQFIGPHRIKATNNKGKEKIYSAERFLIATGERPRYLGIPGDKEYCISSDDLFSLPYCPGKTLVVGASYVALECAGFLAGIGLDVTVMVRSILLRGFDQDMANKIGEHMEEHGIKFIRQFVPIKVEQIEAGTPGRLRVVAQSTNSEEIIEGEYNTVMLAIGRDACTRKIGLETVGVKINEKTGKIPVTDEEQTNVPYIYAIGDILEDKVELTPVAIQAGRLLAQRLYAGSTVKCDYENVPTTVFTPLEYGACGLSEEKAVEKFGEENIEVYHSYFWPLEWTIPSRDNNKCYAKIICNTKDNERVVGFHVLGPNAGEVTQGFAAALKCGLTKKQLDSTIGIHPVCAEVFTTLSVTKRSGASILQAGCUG
# Source text: (§2) The phosphole derivatives containing gold and platinum have been identified as powerful inhibitors of human GR and TrxR (see Table 1). With either the substrate TrxC72S, or DTNB, very low IC50 values at nanomolar level—quasi-stoichiometric reaction—were obtained with wild-type human TrxR. By contrast, the IC50 values with the Sec→Cys mutant were at least 1000 times higher, proving that the selenocysteine residue is the inhibition target of human TrxR. […] A reduction of these enzymes is necessary to complete the inhibition, which proves that the active site comprising the Cys/Cys residues in the GR or Cys/Sec in the TrxR is the inactivation site. The pre-reduction of these enzymes accelerates the inhibition. The reaction between the inhibitor and these enzymes is very rapid and not precisely measurable with standard enzymology techniques. […] This competition would probably not contribute to the irreversible enzymatic inactivation.
# human GR [3] = biological target: T2, human GR (Homo sapiens, UniProt P00390); test: Binding of (1) to human GR: titration and initial-speed kinetics
# T2 sequence (P00390 45-522 limits assumed): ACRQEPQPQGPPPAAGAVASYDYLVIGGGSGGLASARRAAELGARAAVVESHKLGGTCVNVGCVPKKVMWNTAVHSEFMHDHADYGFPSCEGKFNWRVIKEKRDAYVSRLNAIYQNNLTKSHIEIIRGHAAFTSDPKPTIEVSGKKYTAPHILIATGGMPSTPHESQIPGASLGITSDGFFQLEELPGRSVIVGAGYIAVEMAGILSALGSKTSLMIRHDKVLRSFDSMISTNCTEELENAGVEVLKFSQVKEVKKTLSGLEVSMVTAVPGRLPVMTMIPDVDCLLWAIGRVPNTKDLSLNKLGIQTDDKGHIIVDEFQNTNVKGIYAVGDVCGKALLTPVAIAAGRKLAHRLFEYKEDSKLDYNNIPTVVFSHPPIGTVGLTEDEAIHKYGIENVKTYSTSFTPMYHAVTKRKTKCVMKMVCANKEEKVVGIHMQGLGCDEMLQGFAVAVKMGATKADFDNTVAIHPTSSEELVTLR
# Method: The stoichiometry of binding of (1) to human GR was determined by titration. Based on these experiments, (1) binds very tightly to the binding site of the GSSG of each human GR sub-unit. […] Although numerous hydrophobic inhibitors of the human GR and of the GR of Plasmodium falciparum are bound in the cavity between the two sub-units of the dimer with a stoichiometry of 0.5 per sub-unit, this is not the case for the inhibitor (1). The stoichiometry of 1.25 equivalents of (1) per FAD or per sub-unit of human GR can be explained by the presence of a second molecule of (1) bound less tightly to another position in the human GR, confirming the 3D structure of the complex GR-(1). […] The inactivation mechanism of human GR therefore involves an S—Au(I)—S coordination and the loss of the phosphole ligand; • the second site for the metallo-phosphole (1) is the Cys284 exposed to the solvent, at 23 Å of the active site and located in a hydrophobic cavity. In this case, the sulphur atom of the Cys284 remains bound to the Au-phosphole entity. […]
# WT hTrxR [4] = biological target: T1, WT hTrxR; test: Test for reduction of DTNB by TrxR, wild type; format: biochemical; conditions: 3 mM DTNB; 10 min pre-incubation with 200 μM NADPH; enzyme 4.8 nM
# Source text: as §2
# hTrxRSec→Cys [5] = biological target: T3, hTrxRSec→Cys (Homo sapiens, UniProt Q16881); test: Test for reduction of DTNB by TrxR, mutant hTrxR-Mut; format: biochemical; conditions: 3 mM DTNB; 10 min pre-incubation with 200 μM NADPH; enzyme 90.6 nM
# T3 sequence (Q16881 with tags, fused parts or gaps isoform Q16881-5 limits assumed): T1 sequence (Q16881 151-649 limits assumed) with U498C
# Source text: as §2
# hTrxRSec→Cys [6] = biological target: T3, hTrxRSec→Cys; test: Test for reduction of Trx (hTrxC72S) by TrxR, mutant hTrxR-Mut; format: biochemical; conditions: 20 μM hTrxC72S; 10 min pre-incubation with 100 μM NADPH; enzyme 1.8 μM
# Source text: as §2
# human GR [7] = biological target: T2, human GR; test: Test for reduction of GSSG by GR; format: biochemical; conditions: 100 μM GSSG; 10 min pre-incubation with 100 μM NADPH
# Source text: as §2
# [8] = Tolerability in C6 glioma-bearing rats; format: in vivo, rat
# Method: After confirmation of the tumour growth by MRI on day 9, the rats carrying tumours were treated by intravenous injection with the compound (1) at a concentration of 25 mg/kg (n=4). The tumour growth was compared to that of the non-treated control animals (n=4). The treatment commenced on day 9 and continued on days 11 and 13. On day 15 after the implantation of the tumour cells, all the rats were sacrificed by decapitation. Under these conditions, a 44% reduction of the tumour growth was observed between days 9 and 15 at a dose of compound (1) of 25 mg/kg of body weight compared with that of the control group (FIG. 1).
# DNA = test: Thermal DNA denaturation test; format: binding; conditions: tested between 0 and 20 μM
# Method: In addition to its major activity on human disulphide reductases, glutathione reductase and thioredoxin reductase, the binding of complex (1) to DNA was measured in thermal DNA denaturation tests.
# [9] = system: NCH82 human glioblastoma cell line; test: BrdU in vitro proliferation test, NCH82; format: cell-based; conditions: BrdU incorporation
# Method: as §1
# [10] = system: NCH37 human glioblastoma cell line; test: BrdU in vitro proliferation test, NCH37; format: cell-based; conditions: BrdU incorporation
# Method: as §1
SMILES,IC50 [1],IC50 (WT hTrxR [2]),IC50 (WT hTrxR [4]),IC50 (hTrxRSec→Cys [5]),IC50 (hTrxRSec→Cys [6]),IC50 (human GR [7]),further results
c1ccc(-p2c(-c3ccccn3)c3c(c2-c2ccccn2)CCCC3)cc1 [Compound 5],6.7 ± 0.3 µM,,,,,,
[Cl][Au][PH]1(c2ccccc2)C(c2ccccn2)=C2CCCCC2=C1c1ccccn1 [Compound 1],,7 nM,0.8 nM,2500 nM,800 nM,1 nM,"Kd (human GR [3]; kinetics at initial speed with 0.5-2.0 μM GSSG, read-out: disassociation constant Kd=Ki): 460 nM; stoichiometry of binding (human GR [3]; titration, differences in extinction coefficient at selected wavelengths): 1.25 equivalents of (1) per FAD or per sub-unit of human GR; tolerability of the therapy ([8]; 25 mg/kg): well tolerated; death from treatment ([8]; 25 mg/kg i.v., C6 glioma rats): no animal died; total body weight, treated vs control ([8]; 25 mg/kg i.v., C6 glioma rats): no significant difference; binding to DNA: concentration from which active (DNA): 1 µM"
"O=NN(CCCl)C(=O)NCCCl [carmustine, 1,3-bis(2-chloroethyl)-1-nitrosourea]",615 ± 38 µM,,,,,,IC50 [9]: 385 ± 25 µM; IC50 [10]: 300 ± 12 µM

# Further lines, with some results ahead:
IC50 [1],IC50 (WT hTrxR [2]),IC50 (WT hTrxR [4]),IC50 (hTrxRSec→Cys [5]),IC50 (hTrxRSec→Cys [6]),IC50 (human GR [7]),SMILES,further results
,8 nM,1 nM,24000 nM,2300 nM,400 nM,[Cl][Pt-2]1([Cl])[n+]2ccccc2C2=C3CCCCC3=C(c3cccs3)[P+]21c1ccccc1 (centres unmarked) [Compound 4],
,7 nM,1 nM,2500 nM,1400 nM,2 nM,[Cl][Au][PH]1(c2ccccc2)C(c2ccccn2)=C2CCCCC2=C1c1cccs1 [Compound 2],
8.5 ± 0.5 µM,,,,,,c1ccc(-p2c(-c3ccccn3)c3c(c2-c2cccs2)CCCC3)cc1 (centres unmarked) [Compound 6],
